# Test results as given in patent US11690810B2, “Combination treatment of bacterial infection” (The Chinese University of Hong Kong, priority 2018, dated 2023).
# Experiments:
# Test in all cases: MIC and checkerboard (FIC) assay
# [1] = system: clinical fusidic acid resistant MRSA strain 73621; type: cell-based, Staphylococcus aureus; conditions: for FIC / MIC combine: 73621
# CA MRSA W114 = system: CA MRSA W114
# CA MRSA W106 = system: CA MRSA W106
# [2] = system: clinical fusidic acid resistant MRSA strain 82356; type: cell-based, Staphylococcus aureus; conditions: for FIC / MIC combine: 82356
# CA MRSA W45 = system: CA MRSA W45
# HA MRSA W231 = system: HA MRSA W231
# [3] = system: clinical fusidic acid resistant MRSA strain 96591; type: cell-based, Staphylococcus aureus; conditions: for FIC / MIC combine: 96591
# HA MRSA W239 = system: HA MRSA W239
# CA-MRSA strain ST30 = type: cell-based, Staphylococcus aureus
# CA MRSA W46 = system: CA MRSA W46
# CA MRSA W47 = system: CA MRSA W47
# HA MRSA W235 = system: HA MRSA W235
# [4] = system: S. aureus SA-ANT4′ (ANT4), resistant to fusidic acid; conditions: for FIC / MIC combine: ANT4
# CA MRSA W103 = system: CA MRSA W103
# CA MRSA W113 = system: CA MRSA W113
# CA MRSA W101 = system: CA MRSA W101
# CA MRSA W44 = system: CA MRSA W44
# HA MRSA W232 = system: HA MRSA W232
# HA MRSA W238 = system: HA MRSA W238
# [5] = Staphylococcus aureus, MRSA, read-out: MIC alone
smiles,measurement,setting,value
"O=C(O[C@@H]1Cc2c(O)cc(O)cc2O[C@@H]1c1ccc(O)c(O)c1)c1cc(O)c(O)c(O)c1 [ECG, epicatechin gallate]",FIC,[1]; ECG+Kur+Fus,0.004
same,MIC combine,[1]; ECG+Kur+Fus,0.25 µg/mL
same,FIC,"[1]; ECG+Kur, no Fus",0.003
same,MIC combine,"[1]; ECG+Kur, no Fus",16 µg/mL
same,MIC,[1]; [5],512 µg/mL
same,MIC,CA MRSA W114; [5],512 µg/mL
same,FIC,"CA MRSA W114; W114, ECG with Kur",0.002
same,MIC combine,"CA MRSA W114; W114, ECG with Kur",1 µg/mL
same,MIC,CA MRSA W106; [5],512 µg/mL
same,FIC,"CA MRSA W106; W106, ECG with Kur",0.002
same,MIC combine,"CA MRSA W106; W106, ECG with Kur",1 µg/mL
same,FIC,[2]; ECG+Kur+Fus,0.008
same,MIC combine,[2]; ECG+Kur+Fus,0.25 µg/mL
same,FIC,"[2]; ECG+Kur, no Fus",0.016
same,MIC combine,"[2]; ECG+Kur, no Fus",8 µg/mL
same,MIC,[2]; [5],512 µg/mL
same,MIC,CA MRSA W45; [5],512 µg/mL
same,FIC,"CA MRSA W45; W45, ECG with Kur",0.002
same,MIC combine,"CA MRSA W45; W45, ECG with Kur",1 µg/mL
same,FIC,"CA MRSA W45; W45, ECG+Kur+Van",0.0004
same,MIC combine,"CA MRSA W45; W45, ECG+Kur+Van",0.25 µg/mL
same,MIC alone,"CA MRSA W45; W45, Table 5",512 µg/mL
same,MIC,HA MRSA W231; [5],512 µg/mL
same,MIC alone,HA MRSA W231; W231 (gentamicin resistant),512 µg/mL
same,FIC,"HA MRSA W231; W231, ECG with Kur",0.016
same,MIC combine,"HA MRSA W231; W231, ECG with Kur",8 µg/mL
same,FIC,"HA MRSA W231; W231, ECG+Kur+Gen",0.0004
same,MIC combine,"HA MRSA W231; W231, ECG+Kur+Gen",0.25 µg/mL
same,FIC,"HA MRSA W231; W231, ECG+Kur, no Gen",0.008
same,MIC combine,"HA MRSA W231; W231, ECG+Kur, no Gen",4 µg/mL
same,MIC alone,"HA MRSA W231; W231, Table 5",512 µg/mL
same,FIC,[3]; ECG+Kur+Fus,0.002
same,MIC combine,[3]; ECG+Kur+Fus,0.25 µg/mL
same,FIC,"[3]; ECG+Kur, no Fus",0.003
same,MIC combine,"[3]; ECG+Kur, no Fus",16 µg/mL
same,MIC,[3]; [5],512 µg/mL
same,MIC,HA MRSA W239; [5],512 µg/mL
same,FIC,"HA MRSA W239; W239, ECG with Kur",0.002
same,MIC combine,"HA MRSA W239; W239, ECG with Kur",1 µg/mL
same,FIC,"HA MRSA W239; W239, ECG+Kur+Van",0.0009
same,MIC combine,"HA MRSA W239; W239, ECG+Kur+Van",0.5 µg/mL
same,MIC alone,"HA MRSA W239; W239, Table 5",512 µg/mL
same,FIC,"CA-MRSA strain ST30; ST30, ECG with Kur",0.0004
same,MIC combine,"CA-MRSA strain ST30; ST30, ECG with Kur",0.25 µg/mL
same,FIC,"CA-MRSA strain ST30; ST30, ECG+Kur+Van",0.0004
same,MIC combine,"CA-MRSA strain ST30; ST30, ECG+Kur+Van",0.25 µg/mL
same,MIC alone,"CA-MRSA strain ST30; ST30, Table 5",512 µg/mL
same,MIC,CA-MRSA strain ST30; [5],512 µg/mL
same,MIC,CA MRSA W46; [5],512 µg/mL
same,FIC,"CA MRSA W46; W46, ECG with Kur",0.015
same,MIC combine,"CA MRSA W46; W46, ECG with Kur",8 µg/mL
same,FIC,"CA MRSA W46; W46, ECG+Kur+Van",0.002
same,MIC combine,"CA MRSA W46; W46, ECG+Kur+Van",1 µg/mL
same,MIC alone,"CA MRSA W46; W46, Table 5",512 µg/mL
same,MIC,CA MRSA W47; [5],512 µg/mL
same,FIC,"CA MRSA W47; W47, ECG with Kur",0.004
same,MIC combine,"CA MRSA W47; W47, ECG with Kur",2 µg/mL
same,FIC,"CA MRSA W47; W47, ECG+Kur+Van",0.0004
same,MIC combine,"CA MRSA W47; W47, ECG+Kur+Van",0.25 µg/mL
same,MIC alone,"CA MRSA W47; W47, Table 5",512 µg/mL
same,MIC,HA MRSA W235; [5],512 µg/mL
same,FIC,"HA MRSA W235; W235, ECG with Kur",0.002
same,MIC combine,"HA MRSA W235; W235, ECG with Kur",1 µg/mL
same,MIC alone,[4]; ANT4 (fusidic acid resistant),512 µg/mL
same,FIC,[4]; ECG+Kur+Fus,0.0007
same,MIC combine,[4]; ECG+Kur+Fus,4 µg/mL
same,FIC,"[4]; ECG+Kur, no Fus",0.03
same,MIC combine,"[4]; ECG+Kur, no Fus",16 µg/mL
same,FIC,[4]; Kuraridin with ECG,0.03
same,MIC combine,[4]; Kuraridin with ECG,16 µg/mL
same,MIC90,[4]; Staphylococcus aureus,8 µg/mL
same,MIC99,"[4]; Staphylococcus aureus, read-out: MIC 99.9",> 512 µg/mL
same,MIC,"[4]; Staphylococcus aureus, read-out: MIC alone",512 µg/mL
same,MIC,CA MRSA W103; [5],512 µg/mL
same,FIC,"CA MRSA W103; W103, ECG with Kur",0.002
same,MIC combine,"CA MRSA W103; W103, ECG with Kur",1 µg/mL
same,MIC,CA MRSA W113; [5],512 µg/mL
same,FIC,"CA MRSA W113; W113, ECG with Kur",0.002
same,MIC combine,"CA MRSA W113; W113, ECG with Kur",1 µg/mL
same,MIC,CA MRSA W101; [5],512 µg/mL
same,FIC,"CA MRSA W101; W101, ECG with Kur",0.002
same,MIC combine,"CA MRSA W101; W101, ECG with Kur",1 µg/mL
same,MIC,CA MRSA W44; [5],512 µg/mL
same,FIC,"CA MRSA W44; W44, ECG with Kur",0.004
same,MIC combine,"CA MRSA W44; W44, ECG with Kur",2 µg/mL
same,FIC,"CA MRSA W44; W44, ECG+Kur+Van",0.0004
same,MIC combine,"CA MRSA W44; W44, ECG+Kur+Van",0.25 µg/mL
same,MIC alone,"CA MRSA W44; W44, Table 5",512 µg/mL
same,MIC,HA MRSA W232; [5],512 µg/mL
same,FIC,"HA MRSA W232; W232, ECG with Kur",0.008
same,MIC combine,"HA MRSA W232; W232, ECG with Kur",4 µg/mL
same,FIC,"HA MRSA W232; W232, ECG+Kur+Van",0.03
same,MIC combine,"HA MRSA W232; W232, ECG+Kur+Van",8 µg/mL
same,MIC alone,"HA MRSA W232; W232, Table 5",512 µg/mL
same,MIC,HA MRSA W238; [5],512 µg/mL
same,MIC alone,HA MRSA W238; W238 (gentamicin resistant),512 µg/mL
same,FIC,"HA MRSA W238; W238, ECG with Kur",0.002
same,MIC combine,"HA MRSA W238; W238, ECG with Kur",1 µg/mL
same,FIC,"HA MRSA W238; W238, ECG+Kur+Gen",0.0004
same,MIC combine,"HA MRSA W238; W238, ECG+Kur+Gen",0.25 µg/mL
same,FIC,"HA MRSA W238; W238, ECG+Kur+Van",0.0004
same,MIC combine,"HA MRSA W238; W238, ECG+Kur+Van",0.25 µg/mL
same,FIC,"HA MRSA W238; W238, ECG+Kur, no Gen",0.0004
same,MIC combine,"HA MRSA W238; W238, ECG+Kur, no Gen",0.5 µg/mL
same,MIC alone,"HA MRSA W238; W238, Table 5",512 µg/mL
